Experimental data as given in patent US10435399B2, “HDAC6 inhibitory heterocyclic compound” (TAKEDA PHARMACEUTICAL COMPANY LIMITED, priority 2017, dated 2019).

test system: bone-marrow cells; assay: Micronucleus test in rats (bone-marrow cells); assay type: in vivo, rats (Crl:CD(SD)); conditions: rat bone marrow, positive control 20 mg/kg/day
Description: Combination Assay of Micronucleus Test and Comet Assay in Rats […] Bone-marrow smear for micronucleus analysis was prepared as follows. Femur was cut at both ends, and washed with fetal bovine serum (FBS) in a centrifuging tube, and the obtained bone-marrow fluid was centrifuged for 5 min at room temperature. The supernatant was removed, and the cell sediment was suspended in the remaining small amount of the supernatant. A part of the suspension was dropped on a glass slide, and a cover glass was placed thereon to give a bone-marrow smear. The smear was dried well, and fixed with methanol for 5 min. The bone-marrow smear of negative control, that of treatment groups as well as the previously prepared bone-marrow smear of positive control group were encoded, and observed by the blind method. An acridine orange solution (40 μg/mL) was dropped (several drops) to the smear just before observation, and a cover glass was placed thereon. […] In addition, as an index of growth inhibitory effect on bone-marrow cell, total of 500 erythrocytes [immature erythrocytes+mature erythrocytes (ME)] per individual were observed, and immature erythrocyte rate (IE %) relative to the total number of erythrocytes was calculated.

Structure (SMILES) | micronucleated immature erythrocytes incidences (MNIE %), mean ± SD
O=P1(N(CCCl)CCCl)NCCCO1 (stereo not shown) [cyclophosphamide] | ↑2.77 ± 0.88 %

test system: TK6 cells; assay: γH2AX assay using TK6 cells; assay type: cell-based, Human; conditions: 4 hr treatment, up to 100 μM
Description: γH2AX Assay Using TK6 Cells
Human lymphoblasts-derived TK6 cells were treated with the compounds of Examples 489, 512 or 519 at 0, 10, 30 or 100 μmol/L (final concentration) for 4 hr, and the presence or absence of DNA damage was evaluated by measuring phosphorylation of histone H2AX (γH2AX) as a marker. In addition, cytotoxicity after 24-hr treatment was also evaluated.
Exponentially growing TK6 cells were prepared at the cell density of 4×10^5 cells/mL in a culture medium, and was added to a 96-well plate by 100 μL/well. A test compound solution (2% DMSO) prepared using a culture solution, having twice the concentration on the above-mentioned final concentrations, was added thereto by 100 μL/well. This plate was incubated at 37° C., the cell suspension after 4 hr was sampled, and stained using In Vitro MultiFlow™ DNA Damage Kit (Litron), and H2AX phosphorylation level in each nucleus was measured using a flow cytometer and average value was calculated. The H2AX phosphorylation level in the concurrent vehicle control group was also measured and average value was calculated. The rate of change in the H2AX phosphorylation level in the treatment groups relative to that in the control group was calculated, and Dunnett test (significance level: two-tailed 1%) was performed. In addition, the cell suspension after 24 hr treatment was sampled, and the nucleus number was measured, and variation in the nucleus number in the treatment groups relative to that in the concurrent vehicle control group was used as an indicator of cytotoxicity. […] Therefore, the potential of the compounds for DNA strand breakage was judged to be negative under this test condition.

potential for DNA strand breakage (judgement) | Structure (SMILES) | histone H2AX phosphorylation (γH2AX) resulted from DNA strand breakage
negative | CC(F)(F)C(=O)N[C@H]1[C@H](N2Cc3ncc(-c4nnc(C(F)F)o4)cc3C2=O)CCCC1(F)F [Example 598, N-((1S,6R)-6-(3-(5-(difluoromethyl)-1,3,4-oxadiazol-2-yl)-5-oxo-5,7-dihydro-6H-pyrrolo[3,4-b]pyridin-6-yl)-2,2-difluorocyclohexyl)-2,2-difluoropropanamide] | did not induce histone H2AX phosphorylation

target: T1, HDAC6 enzyme (Homo sapiens, UniProt Q9UBN7); assay: HDAC6 enzyme inhibitory activity (HDAC-Glo I/II Assay kit); assay type: biochemical; conditions: 10 μM; wells without enzyme = 100% inhibition
T1 construct: transducing full length HDAC6 gene into Sf-9 insect cells; GST; purchased SignalChem; host or cells: Sf-9 insect cells
T1 sequence (Q9UBN7 1-1215): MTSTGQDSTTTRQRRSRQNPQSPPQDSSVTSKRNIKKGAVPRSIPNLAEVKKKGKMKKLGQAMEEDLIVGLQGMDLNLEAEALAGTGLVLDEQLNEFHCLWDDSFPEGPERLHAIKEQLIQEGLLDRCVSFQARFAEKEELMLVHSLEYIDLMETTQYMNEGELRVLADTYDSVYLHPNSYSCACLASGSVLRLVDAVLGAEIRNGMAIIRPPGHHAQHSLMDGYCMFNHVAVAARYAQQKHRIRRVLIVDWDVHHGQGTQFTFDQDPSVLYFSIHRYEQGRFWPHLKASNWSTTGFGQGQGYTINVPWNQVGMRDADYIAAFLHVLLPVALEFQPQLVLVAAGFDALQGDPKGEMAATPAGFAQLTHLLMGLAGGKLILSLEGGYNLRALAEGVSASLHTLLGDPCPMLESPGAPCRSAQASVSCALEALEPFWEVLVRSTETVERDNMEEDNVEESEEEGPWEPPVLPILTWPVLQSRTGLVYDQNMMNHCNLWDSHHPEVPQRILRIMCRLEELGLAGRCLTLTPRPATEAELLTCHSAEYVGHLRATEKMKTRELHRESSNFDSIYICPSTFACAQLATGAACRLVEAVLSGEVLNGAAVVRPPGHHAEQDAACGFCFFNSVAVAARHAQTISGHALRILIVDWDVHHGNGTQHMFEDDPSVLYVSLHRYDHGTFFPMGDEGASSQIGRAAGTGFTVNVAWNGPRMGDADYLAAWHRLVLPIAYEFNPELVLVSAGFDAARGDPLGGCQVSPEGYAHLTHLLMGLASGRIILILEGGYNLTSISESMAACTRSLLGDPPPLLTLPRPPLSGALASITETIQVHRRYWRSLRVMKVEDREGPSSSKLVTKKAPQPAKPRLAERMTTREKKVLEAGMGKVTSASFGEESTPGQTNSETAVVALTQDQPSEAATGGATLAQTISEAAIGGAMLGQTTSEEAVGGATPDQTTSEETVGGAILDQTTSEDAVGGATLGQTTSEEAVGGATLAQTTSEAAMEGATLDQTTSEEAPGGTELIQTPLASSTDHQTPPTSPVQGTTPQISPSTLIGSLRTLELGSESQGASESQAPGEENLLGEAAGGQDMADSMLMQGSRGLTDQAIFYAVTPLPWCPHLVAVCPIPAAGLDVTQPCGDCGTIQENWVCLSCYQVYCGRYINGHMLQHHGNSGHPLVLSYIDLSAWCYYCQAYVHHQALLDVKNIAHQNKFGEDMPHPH
Method in brief: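 Test compound is preincubated 60 min at RT with full-length insect-cell HDAC6 in Tris-HCl pH 7.5 with 135 mM NaCl and 1 mM MgCl2. A 20 min room-temperature HDAC-Glo reaction follows, with luminescent read-out.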

Structure (SMILES) | HDAC6 inhibitory rate (%) (10 μM)
O=C1c2cc(-c3nnc(C(F)F)o3)cnc2CN1[C@@H]1COCC[C@H]1Oc1cc(F)cc(F)c1 [Example 651, 1,5-anhydro-2,4-dideoxy-2-(3-(5-(difluoromethyl)-1,3,4-oxadiazol-2-yl)-5-oxo-5,7-dihydro-6H-pyrrolo[3,4-b]pyridin-6-yl)-3-O-(3,5-difluorophenyl)-threo-pentitol (optical isomer)] | 100%
O=C1c2cc(-c3nnc(C(F)F)o3)cnc2CN1[C@@H]1COCC[C@H]1Oc1ccc(F)cc1F [Example 656, 1,5-anhydro-2,4-dideoxy-2-(3-(5-(difluoromethyl)-1,3,4-oxadiazol-2-yl)-5-oxo-5,7-dihydro-6H-pyrrolo[3,4-b]pyridin-6-yl)-3-O-(2,4-difluorophenyl)-threo-pentitol (Optical Isomer)] | 100%
O=C1c2cc(-c3nnc(C(F)F)o3)cnc2CN1[C@@H]1COCC[C@H]1Oc1c(F)cccc1F [Example 660, 1,5-anhydro-2,4-dideoxy-2-{3-[5-(difluoromethyl)-1,3,4-oxadiazol-2-yl]-5-oxo-5,7-dihydro-6H-pyrrolo[3,4-b]pyridin-6-yl}-3-O-(2,6-difluorophenyl)-threo-pentitol (optical isomer)] | 100%

Next, values leading:

HDAC6 inhibitory rate (%) (10 μM) | Structure (SMILES)
100% | O=C1c2cc(-c3nnc(C(F)F)o3)cnc2CN1[C@@H]1COCC[C@H]1Oc1ccc(F)c(F)c1 [Example 649, 1,5-anhydro-2,4-dideoxy-2-(3-(5-(difluoromethyl)-1,3,4-oxadiazol-2-yl)-5-oxo-5,7-dihydro-6H-pyrrolo[3,4-b]pyridin-6-yl)-3-O-(3,4-difluorophenyl)-threo-pentitol (Optical Isomer)]
99% | O=C1c2cc(-c3nnc(C(F)F)o3)cnc2CN1[C@@H]1COCC[C@H]1Oc1cccc(F)c1 [Example 653, 1,5-anhydro-2,4-dideoxy-2-(3-(5-(difluoromethyl)-1,3,4-oxadiazol-2-yl)-5-oxo-5,7-dihydro-6H-pyrrolo[3,4-b]pyridin-6-yl)-3-O-(3-fluorophenyl)-threo-pentitol (optical isomer)]

same assay, conditions: 10 μM; wells without enzyme = 100% inhibition; read-out: HDAC6 inhibitory rate (%) (10 μM)

Structure (SMILES) | inhibition at 10 µM
CC(F)(F)C(=O)N[C@H]1[C@H](N2Cc3ncc(-c4nnc(C(F)F)o4)cc3C2=O)CCCC1(F)F [Example 598, N-((1S,6R)-6-(3-(5-(difluoromethyl)-1,3,4-oxadiazol-2-yl)-5-oxo-5,7-dihydro-6H-pyrrolo[3,4-b]pyridin-6-yl)-2,2-difluorocyclohexyl)-2,2-difluoropropanamide] | 100%
O=C1c2cc(-c3nnc(C(F)F)o3)cnc2CN1[C@@H]1COCC[C@H]1Oc1ccccc1F [Example 647, 1,5-anhydro-2,4-dideoxy-2-(3-(5-(difluoromethyl)-1,3,4-oxadiazol-2-yl)-5-oxo-5,7-dihydro-6H-pyrrolo[3,4-b]pyridin-6-yl)-3-O-(2-fluorophenyl)-threo-pentitol (optical isomer)] | 100%
O=C1c2cc(-c3nnc(C(F)F)o3)cnc2CN1[C@@H]1COCC[C@H]1Oc1cccc(F)c1F [Example 657, 1,5-anhydro-2,4-dideoxy-2-{3-[5-(difluoromethyl)-1,3,4-oxadiazol-2-yl]-5-oxo-5,7-dihydro-6H-pyrrolo[3,4-b]pyridin-6-yl}-3-O-(2,3-difluorophenyl)-threo-pentitol (optical isomer)] | 100%
O=C1c2cc(-c3nnc(C(F)F)o3)cnc2CN1[C@@H]1COCC[C@H]1Oc1c(F)cccc1F [Example 659, 1,5-anhydro-2,4-dideoxy-2-{3-[5-(difluoromethyl)-1,3,4-oxadiazol-2-yl]-5-oxo-5,7-dihydro-6H-pyrrolo[3,4-b]pyridin-6-yl}-3-O-(2,6-difluorophenyl)-threo-pentitol (optical isomer)] | 99%
O=C1c2cc(-c3nnc(C(F)F)o3)cnc2CN1[C@@H]1CCCC[C@@H]1NC(=O)C(F)(F)C(F)(F)F [Example 661, N-[(1S,2R)-2-{3-[5-(difluoromethyl)-1,3,4-oxadiazol-2-yl]-5-oxo-5,7-dihydro-6H-pyrrolo[3,4-b]pyridin-6-yl}cyclohexyl]-2,2,3,3,3-pentafluoropropanamide] | 99%

Continued, values first:

inhibition at 10 µM | Structure (SMILES)
99% | O=C1c2cc(-c3nnc(C(F)F)o3)cnc2CN1[C@@H]1COCC[C@H]1Oc1cc(F)cc(F)c1 [Example 650, 1,5-anhydro-2,4-dideoxy-2-(3-(5-(difluoromethyl)-1,3,4-oxadiazol-2-yl)-5-oxo-5,7-dihydro-6H-pyrrolo[3,4-b]pyridin-6-yl)-3-O-(3,5-difluorophenyl)-threo-pentitol (optical isomer)]
100% | O=C1c2cc(-c3nnc(C(F)F)o3)cnc2CN1[C@@H]1COCC[C@H]1Oc1cccc(F)c1 [Example 652, 1,5-anhydro-2,4-dideoxy-2-(3-(5-(difluoromethyl)-1,3,4-oxadiazol-2-yl)-5-oxo-5,7-dihydro-6H-pyrrolo[3,4-b]pyridin-6-yl)-3-O-(3-fluorophenyl)-threo-pentitol (optical isomer)]
96% | O=C1c2cc(-c3nnc(C(F)F)o3)cnc2CN1[C@@H]1COCC[C@H]1Oc1ccc(F)cc1F [Example 655, 1,5-anhydro-2,4-dideoxy-2-(3-(5-(difluoromethyl)-1,3,4-oxadiazol-2-yl)-5-oxo-5,7-dihydro-6H-pyrrolo[3,4-b]pyridin-6-yl)-3-O-(2,4-difluorophenyl)-threo-pentitol]
